Laboratory results taken from patent US7064217B2 (University of Virginia Patent Foundation, priority 2001, dated 2006).
“Also recorded” adds a separate entry of the source. Like-named read-outs stand apart in the source and are kept apart here.

Experiments:
Format in all cases: biochemical
zS1P1 = biological target: T1, zS1P1 (Danio rerio, UniProt Q9DDK4); experiment: [γ-35S]GTP binding, zebrafish S1P1 overexpressed in rat RH-7777 cells; settings: GTPγS binding, zebrafish S1P1 in rat RH-7777
T1 construct: expressed in transfected cells; host or cells: rat hepatoma RH-7777
T1 sequence (Q9DDK4 1-362): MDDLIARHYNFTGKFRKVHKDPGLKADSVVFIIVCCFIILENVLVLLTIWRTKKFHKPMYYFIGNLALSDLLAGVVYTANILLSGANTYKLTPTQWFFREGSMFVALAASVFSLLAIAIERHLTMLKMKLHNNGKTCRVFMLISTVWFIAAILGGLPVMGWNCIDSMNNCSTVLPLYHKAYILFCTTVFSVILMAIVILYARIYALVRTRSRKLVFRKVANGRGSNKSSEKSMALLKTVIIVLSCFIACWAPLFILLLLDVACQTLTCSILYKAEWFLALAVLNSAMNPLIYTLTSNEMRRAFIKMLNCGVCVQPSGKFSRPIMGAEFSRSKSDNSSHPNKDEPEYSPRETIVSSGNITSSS
Experimental: (§1) After incubating for 30 min at 30° C., bound radionuclide was separated from free by filtration through Whatman GF/C paper using a Brandel Cell Harvester (Gaithersburg, Md.).
Rat hepatoma RH7777 cell monolayers were transfected with human or mouse S1P5/pCR3.1 DNA using the calcium phosphate precipitate method, and clonal populations expressing the neomycin phosphotransferase gene were selected by addition of Ge-neticin (G418) to the culture medium. The RH7777 cells were grown in monolayers at 37° C. in a 5%CO2/95% air atmosphere in growth medium consisting of 90% MEM, 10% fetal bovine serum, 2 mM glutamine, and 1 mM sodium pyruvate.
(§2) Assay of cAMP accumulation was performed as described previously (See Im et al., J. Biol. Chem. 275, 14281–14286 (2000), the disclosure of which is incorporated herein). Assays were conducted on populations of 5×10^5 cells stimulated with 1 uM forskolin in the presence of the phosphodiesterase inhibitor […] (IBMX, 1 mM) for 15 min. cAMP was measured by automated radioimmunoassay. The GTPγS studies were performed using zebrafish S1P1 overexpressed rat RH-7777 and human hS1P1, hS1P2, hS1P3 and hS1P5 overexpressed human HEK293 cells.

hS1P1 = biological target: T2, hS1P1 (Homo sapiens, UniProt P21453); experiment: [γ-35S]GTP binding to HEK293T cell membranes, hS1P1; settings: GTPγS binding; for EC50: read-out: EC50 Values (nM) for S1P Analogues at Recombinant S1P Receptors, hS1P1, HEK293
T2 construct: expressed in transfected cells; host or cells: HEK293T
Experimental: (§3) Human or mouse S1P5 DNA was mixed with an equal amount of DNA encoding a rat Gi2R protein as well as DNAs encoding cow β1 and γ2 proteins and used to transfect monolayers of HEK293T cells using the calcium phosphate precipitate method. After 60 h, cells were harvested, and microsomes were prepared, aliquoted, and stored at −70° C. until use.
as §1, §2
(§4) An additional series of compounds was tested using the GTPγS binding assay described in Example 2 and in Im et al., J. Biol. Chem. 275, 14281–14286 (2000), the disclosure of which is incorporated herein).

hS1P3 = biological target: T3, hS1P3 (Homo sapiens, UniProt Q99500); experiment: [γ-35S]GTP binding to HEK293T cell membranes, hS1P3; settings: GTPγS binding; for EC50: read-out: EC50 Values (nM) for S1P Analogues at Recombinant S1P Receptors, hS1P3, HEK293; for activity at the S1P3 receptor (inverse agonism/antagonism or agonism): Example 3 series
T3 construct: expressed in transfected cells; host or cells: HEK293T
Experimental: as §3, §1, §2, §4

mS1P5 = biological target: T4, mS1P5 (Mus musculus, UniProt Q91X56); experiment: [γ-35S]GTP binding to HEK293T cell membranes, mS1P5; settings: GTPγS binding
T4 construct: expressed in transfected cells; host or cells: HEK293T
Experimental: as §3, §1, §2

hS1P2 = biological target: T5, hS1P2 (Homo sapiens, UniProt O95136); experiment: [γ-35S]GTP binding to HEK293T cell membranes, hS1P2; settings: GTPγS binding; for EC50: read-out: EC50 Values (nM) for S1P Analogues at Recombinant S1P Receptors, hS1P2, HEK293; for activity at the S1P2 receptor: Example 3 series
T5 construct: expressed in transfected cells; host or cells: HEK293T
Experimental: as §3, §1, §2, §4

hS1P5 = biological target: T6, hS1P5 (Homo sapiens, UniProt Q9H228); experiment: [γ-35S]GTP binding to HEK293T cell membranes, hS1P5; settings: read-out: EC50 Values (nM) for S1P Analogues at Recombinant S1P Receptors, hS1P5; GTPγS binding; HEK293
T6 construct: expressed in transfected cells; host or cells: HEK293T
Experimental: as §3, §1, §2, §4

hS1P4 = biological target: T7, hS1P4 (Homo sapiens, UniProt O95977); experiment: [γ-35S]GTP binding to HEK293T cell membranes, hS1P4; settings: GTPγS binding, primary alcohols
T7 construct: expressed in transfected cells; host or cells: HEK293T
T7 sequence (O95977 1-384): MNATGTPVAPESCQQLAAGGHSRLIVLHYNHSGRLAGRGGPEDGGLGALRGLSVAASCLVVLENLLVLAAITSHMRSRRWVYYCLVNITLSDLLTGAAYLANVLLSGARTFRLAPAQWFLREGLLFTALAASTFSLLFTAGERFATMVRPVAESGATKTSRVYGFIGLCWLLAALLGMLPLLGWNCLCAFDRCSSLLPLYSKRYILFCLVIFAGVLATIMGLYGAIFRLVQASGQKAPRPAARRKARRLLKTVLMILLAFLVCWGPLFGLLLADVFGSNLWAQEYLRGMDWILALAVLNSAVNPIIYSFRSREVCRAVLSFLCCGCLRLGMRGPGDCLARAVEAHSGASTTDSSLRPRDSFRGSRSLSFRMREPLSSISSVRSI
Experimental: as §1, §4

S1P receptors = experiment: [γ-35S]GTP binding assay, statements across the recombinant S1P receptors tested; settings: GTPγS binding
Experimental: as §3, §1, §2, §4

[1] = read-out: EC50 Values (nM) for S1P Analogues at Recombinant S1P Receptors, zS1P1
[2] = read-out: EC50 Values (nM) for S1P Analogues at Recombinant S1P Receptors, mS1P5

T5 sequence (O95136 whole entry): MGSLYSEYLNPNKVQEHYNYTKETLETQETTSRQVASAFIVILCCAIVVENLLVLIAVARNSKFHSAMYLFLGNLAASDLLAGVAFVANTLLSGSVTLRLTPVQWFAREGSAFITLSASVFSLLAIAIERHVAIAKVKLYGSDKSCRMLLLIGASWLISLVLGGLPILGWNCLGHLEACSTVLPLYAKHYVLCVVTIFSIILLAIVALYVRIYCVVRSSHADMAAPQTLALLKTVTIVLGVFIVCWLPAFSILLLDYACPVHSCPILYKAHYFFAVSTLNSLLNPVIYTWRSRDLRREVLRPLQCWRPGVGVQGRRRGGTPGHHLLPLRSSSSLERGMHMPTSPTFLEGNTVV
T3 sequence (Q99500 whole entry): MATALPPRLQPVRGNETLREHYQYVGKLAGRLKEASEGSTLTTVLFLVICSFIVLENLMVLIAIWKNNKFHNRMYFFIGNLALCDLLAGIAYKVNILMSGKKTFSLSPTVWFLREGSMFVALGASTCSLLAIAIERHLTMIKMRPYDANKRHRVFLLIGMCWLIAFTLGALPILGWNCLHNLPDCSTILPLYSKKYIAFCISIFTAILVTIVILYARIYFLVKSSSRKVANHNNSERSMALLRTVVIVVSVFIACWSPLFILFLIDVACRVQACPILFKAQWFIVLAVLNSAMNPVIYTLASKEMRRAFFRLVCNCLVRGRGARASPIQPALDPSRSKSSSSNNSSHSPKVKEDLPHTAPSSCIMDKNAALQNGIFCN
T6 sequence (Q9H228 whole entry): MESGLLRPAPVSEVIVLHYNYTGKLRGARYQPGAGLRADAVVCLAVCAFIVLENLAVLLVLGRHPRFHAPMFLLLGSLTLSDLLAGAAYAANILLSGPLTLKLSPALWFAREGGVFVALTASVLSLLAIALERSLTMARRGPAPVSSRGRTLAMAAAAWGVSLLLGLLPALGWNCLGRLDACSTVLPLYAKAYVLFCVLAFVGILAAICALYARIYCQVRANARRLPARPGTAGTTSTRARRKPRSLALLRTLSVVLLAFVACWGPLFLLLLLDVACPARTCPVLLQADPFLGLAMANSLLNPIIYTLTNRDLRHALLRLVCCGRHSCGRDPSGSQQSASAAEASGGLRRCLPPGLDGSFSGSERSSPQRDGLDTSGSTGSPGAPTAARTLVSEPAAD
T4 sequence (Q91X56 whole entry): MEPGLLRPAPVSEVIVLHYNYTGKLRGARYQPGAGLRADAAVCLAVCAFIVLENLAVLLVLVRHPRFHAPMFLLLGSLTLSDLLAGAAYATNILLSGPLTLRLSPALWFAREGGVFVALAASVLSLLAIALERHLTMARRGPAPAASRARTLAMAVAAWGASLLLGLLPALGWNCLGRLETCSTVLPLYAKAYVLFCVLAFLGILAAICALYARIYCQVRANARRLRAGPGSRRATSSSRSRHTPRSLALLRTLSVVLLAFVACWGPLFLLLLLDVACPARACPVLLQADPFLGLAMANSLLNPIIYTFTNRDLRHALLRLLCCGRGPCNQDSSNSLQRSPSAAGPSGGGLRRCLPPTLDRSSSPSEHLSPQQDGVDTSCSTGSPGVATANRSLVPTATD
T2 sequence (P21453 whole entry): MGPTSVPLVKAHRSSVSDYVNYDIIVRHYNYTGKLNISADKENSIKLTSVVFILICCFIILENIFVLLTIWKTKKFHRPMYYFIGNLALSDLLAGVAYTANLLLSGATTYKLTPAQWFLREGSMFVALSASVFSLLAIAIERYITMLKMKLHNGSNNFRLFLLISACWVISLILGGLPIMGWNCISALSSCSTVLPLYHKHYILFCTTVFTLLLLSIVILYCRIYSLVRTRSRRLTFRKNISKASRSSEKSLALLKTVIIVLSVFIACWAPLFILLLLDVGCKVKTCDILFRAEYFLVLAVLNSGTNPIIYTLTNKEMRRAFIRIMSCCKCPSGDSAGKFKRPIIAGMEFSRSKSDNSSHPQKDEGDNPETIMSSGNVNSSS

Question: How did the EC50 (zS1P1) turn out when `CCCCCCCCCCCCC/C=C/[C@@H](O)[C@@H](N)COP(=O)(O)O` [Compound S1P, Sphingosine-1-phosphate, reference compound] was run?
Answer: 54.6 nM

Question: And the EC50 (hS1P1)?
Answer: 0.9 nM

Question: And the EC50 (hS1P3)?
Answer: 1.1 nM

Question: What about the EC50 (mS1P5) of the same compound?
Answer: 12.7 nM

Question: Which EC50 (zS1P1) does the source give for `CCCCCCCCCCCCNC(=O)[C@@H](N)COP(=O)(O)O` [VPC22041] here?
Answer: 2050 nM

Question: What about the EC50 (hS1P1) of the same compound?
Answer: 598 nM

Question: And the EC50 (hS1P3)?
Answer: 845 nM

Question: And the EC50 (hS1P2)?
Answer: 973 nM

Question: What about the EC50 (hS1P5) of the same compound?
Answer: 646 nM

Question: What about the EC50 (mS1P5) of the same compound?
Answer: > 5000 nM

Question: Which EC50 (zS1P1; [1]) does the source give for `CCCCCCCCCCCCCCNC(=O)[C@@H](N)COP(=O)(O)O` [VPC22051] here?
Answer: > 5000 nM

Question: What about the EC50 (hS1P1) of the same compound?
Answer: 322 nM

Question: And the EC50 (hS1P3)?
Answer: 602 nM

Question: And the EC50 (hS1P2)?
Answer: 2760 nM

Question: What about the EC50 (hS1P5) of the same compound?
Answer: > 5000 nM

Question: What about the EC50 (mS1P5; [2]) of the same compound?
Answer: > 5000 nM

Question: How did the EC50 (zS1P1; [1]) turn out when `CCCCCCCCCCCCCCOC(=O)[C@@H](N)COP(=O)(O)O.O=C(O)C(F)(F)F` [VPC22053] was run?
Answer: > 5000 nM

Question: What about the “loss of potency relative to enantiomer VPC22135 at S1P1 receptor” value (hS1P1) of the same compound?
Answer: more than 1 log order

Question: What about the EC50 (hS1P1) of the same compound?
Answer: 397 nM

Question: And the “loss of potency relative to enantiomer VPC22135 at S1P3 receptor” value (hS1P3)?
Answer: more than 1 log order

Question: What about the EC50 (hS1P3) of the same compound?
Answer: 862 nM

Question: And the EC50 (hS1P2)?
Answer: 2680 nM

Question: What about the EC50 (hS1P5) of the same compound?
Answer: 1610 nM

Question: And the EC50 (mS1P5; [2])?
Answer: 2010 nM

Question: What does the source list for `CCCCCCCCCCCCCCCCNC(=O)[C@@H](N)COP(=O)(O)O` [VPC22063]?
Answer: EC50 (zS1P1): > 5000 nM; EC50 (hS1P1): 1800 nM; EC50 (hS1P3): 879 nM; EC50 (hS1P5): 1220 nM; EC50 (mS1P5): 1330 nM

Question: With `CCCCCCCCCCCCCCNC(=O)[C@H](N)COP(=O)(O)O` [VPC22135] as the compound, how does the EC50 (zS1P1) read?
Answer: 1620 nM

Question: And the “potency relative to S1P at human S1P1 receptor” value (hS1P1)?
Answer: approached the potency of S1P

Question: What about the EC50 (hS1P1) of the same compound?
Answer: 12.7 nM

Question: What about the “potency relative to S1P at human S1P3 receptor” value (hS1P3) of the same compound?
Answer: approached the potency of S1P

Question: What about the EC50 (hS1P3) of the same compound?
Answer: 50.8 nM

Question: What about the EC50 (hS1P2) of the same compound?
Answer: 2110 nM

Question: And the EC50 (mS1P5)?
Answer: 1820 nM

Question: Which results are given for `CCCCCCCCc1cccc(NC(=O)[C@H](N)COP(=O)(O)O)c1` [VPC23019]?
Answer: activity at S1P1 (antagonism) (hS1P1; competition with S1P): antagonism; activity at the S1P3 receptor (inverse agonism/antagonism or agonism) (hS1P3): inverse agonists; activity at the S1P2 receptor (hS1P2): failed to show significant activity; also recorded: inactive

Question: Which “activity at the S1P3 receptor (inverse agonism/antagonism or agonism)” value (hS1P3) does the source give for `CCCCCCc1cccc(NC(=O)[C@H](N)COP(=O)(O)O)c1.O=C(O)C(F)(F)F` [VPC23031] here?
Answer: inverse agonists

Question: What about the “activity at the S1P2 receptor” value (hS1P2) of the same compound?
Answer: failed to show significant activity; also recorded: inactive

Question: How did the “activity at the S1P2 receptor” value (hS1P2) turn out when `CCCCCCCCCCc1cccc(NC(=O)[C@H](N)CO)c1.O=C(O)C(F)(F)F` [VPC23065] was run?
Answer: failed to show significant activity; also recorded: inactive

Question: And the “agonist activity at the S1P4 receptor” value (hS1P4)?
Answer: good agonist activity

Question: What about the “agonist activity at S1P receptors” value (S1P receptors) of the same compound?
Answer: significant agonist activity

Question: How did the “activity at the S1P3 receptor (inverse agonism/antagonism or agonism)” value (hS1P3) turn out when `CCCCCCCCCCc1cccc(NC(=O)[C@H](N)COP(=O)(O)O)c1.O=C(O)C(F)(F)F` [VPC23069] was run?
Answer: agonism

Question: What about the “activity at the S1P2 receptor” value (hS1P2) of the same compound?
Answer: failed to show significant activity; also recorded: inactive

Question: Which “activity at the S1P2 receptor” value (hS1P2) does the source give for `CCCCCCCCCc1cccc(NC(=O)[C@H](N)CO)c1.O=C(O)C(F)(F)F` [VPC23075] here?
Answer: failed to show significant activity; also recorded: inactive

Question: And the “agonist activity at the S1P4 receptor” value (hS1P4)?
Answer: good agonist activity

Question: And the “agonist activity at S1P receptors” value (S1P receptors)?
Answer: significant agonist activity

Question: What does the source list for `CCCCCCCCCc1cccc(NC(=O)[C@H](N)COP(=O)(O)O)c1.O=C(O)C(F)(F)F` [VPC23079]?
Answer: activity at the S1P3 receptor (inverse agonism/antagonism or agonism) (hS1P3): agonism; activity at the S1P2 receptor (hS1P2): failed to show significant activity; also recorded: inactive

Question: For `CCCCCCCCc1ccccc1NC(=O)[C@H](N)CO.O=C(O)C(F)(F)F` [VPC23087], which “activity at the S1P2 receptor” value (hS1P2) is on record?
Answer: failed to show significant activity; also recorded: inactive

Question: What about the “agonist activity at the S1P4 receptor” value (hS1P4) of the same compound?
Answer: good agonist activity

Question: What about the “agonist activity at S1P receptors” value (S1P receptors) of the same compound?
Answer: significant agonist activity

Question: Which “activity at the S1P3 receptor (inverse agonism/antagonism or agonism)” value (hS1P3) does the source give for `CCCCCCCCc1ccccc1NC(=O)[C@H](N)COP(=O)(O)O` [VPC23089] here?
Answer: inverse agonists

Question: And the “activity at the S1P2 receptor” value (hS1P2)?
Answer: failed to show significant activity; also recorded: inactive
